One experiment concerns the target VEGFR2, unphosphorylated (Homo sapiens (Human), UniProt P35968). The experiment in a line: VEGFR ADP GLO Assay. The class given is biochemical. For orientation: In ADP-Glo the light output rises with the ADP produced.
Experiment [1] addresses Tb-labeled inactive PDGFRβ (Homo sapiens (Human), UniProt P09619). The experiment in a line: PDGFRβ LanthaScreen Assay. The class given is binding. Conditions: read-out: PDGFR Lantha IC50. (In general: In TR-FRET formats the signal depends on donor and acceptor labels being close together.)

As a reminder, the IC50 is the concentration that gives 50% inhibition.

Chain of Tb-labeled inactive PDGFRβ (P09619 33-1106): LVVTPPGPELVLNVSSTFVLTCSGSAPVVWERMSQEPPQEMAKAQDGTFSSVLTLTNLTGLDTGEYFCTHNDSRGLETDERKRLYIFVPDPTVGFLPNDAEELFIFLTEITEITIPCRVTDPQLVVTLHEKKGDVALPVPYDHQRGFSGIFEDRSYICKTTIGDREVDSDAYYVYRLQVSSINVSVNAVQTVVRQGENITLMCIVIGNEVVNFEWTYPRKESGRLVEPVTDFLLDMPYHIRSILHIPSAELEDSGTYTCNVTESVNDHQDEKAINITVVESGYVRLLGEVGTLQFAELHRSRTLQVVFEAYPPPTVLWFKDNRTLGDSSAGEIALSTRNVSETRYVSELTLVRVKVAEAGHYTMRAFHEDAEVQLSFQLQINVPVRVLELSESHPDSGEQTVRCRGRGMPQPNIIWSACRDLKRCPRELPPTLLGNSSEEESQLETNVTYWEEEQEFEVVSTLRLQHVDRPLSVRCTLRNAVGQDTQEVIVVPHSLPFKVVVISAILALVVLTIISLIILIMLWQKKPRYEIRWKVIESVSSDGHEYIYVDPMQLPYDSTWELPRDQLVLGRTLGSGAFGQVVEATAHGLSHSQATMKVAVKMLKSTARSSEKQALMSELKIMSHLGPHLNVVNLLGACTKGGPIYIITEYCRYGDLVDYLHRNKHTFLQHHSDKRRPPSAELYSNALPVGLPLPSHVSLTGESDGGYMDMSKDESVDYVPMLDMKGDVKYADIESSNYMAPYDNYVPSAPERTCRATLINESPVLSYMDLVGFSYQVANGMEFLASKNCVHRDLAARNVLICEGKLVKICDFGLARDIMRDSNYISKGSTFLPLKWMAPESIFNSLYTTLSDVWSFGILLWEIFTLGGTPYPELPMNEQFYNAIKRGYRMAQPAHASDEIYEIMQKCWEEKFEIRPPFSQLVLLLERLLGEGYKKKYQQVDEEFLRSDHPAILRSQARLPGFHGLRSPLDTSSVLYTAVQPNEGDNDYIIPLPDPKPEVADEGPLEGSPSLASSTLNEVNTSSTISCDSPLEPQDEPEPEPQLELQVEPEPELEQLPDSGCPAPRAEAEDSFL
Chain of VEGFR2, unphosphorylated (P35968 20-1356): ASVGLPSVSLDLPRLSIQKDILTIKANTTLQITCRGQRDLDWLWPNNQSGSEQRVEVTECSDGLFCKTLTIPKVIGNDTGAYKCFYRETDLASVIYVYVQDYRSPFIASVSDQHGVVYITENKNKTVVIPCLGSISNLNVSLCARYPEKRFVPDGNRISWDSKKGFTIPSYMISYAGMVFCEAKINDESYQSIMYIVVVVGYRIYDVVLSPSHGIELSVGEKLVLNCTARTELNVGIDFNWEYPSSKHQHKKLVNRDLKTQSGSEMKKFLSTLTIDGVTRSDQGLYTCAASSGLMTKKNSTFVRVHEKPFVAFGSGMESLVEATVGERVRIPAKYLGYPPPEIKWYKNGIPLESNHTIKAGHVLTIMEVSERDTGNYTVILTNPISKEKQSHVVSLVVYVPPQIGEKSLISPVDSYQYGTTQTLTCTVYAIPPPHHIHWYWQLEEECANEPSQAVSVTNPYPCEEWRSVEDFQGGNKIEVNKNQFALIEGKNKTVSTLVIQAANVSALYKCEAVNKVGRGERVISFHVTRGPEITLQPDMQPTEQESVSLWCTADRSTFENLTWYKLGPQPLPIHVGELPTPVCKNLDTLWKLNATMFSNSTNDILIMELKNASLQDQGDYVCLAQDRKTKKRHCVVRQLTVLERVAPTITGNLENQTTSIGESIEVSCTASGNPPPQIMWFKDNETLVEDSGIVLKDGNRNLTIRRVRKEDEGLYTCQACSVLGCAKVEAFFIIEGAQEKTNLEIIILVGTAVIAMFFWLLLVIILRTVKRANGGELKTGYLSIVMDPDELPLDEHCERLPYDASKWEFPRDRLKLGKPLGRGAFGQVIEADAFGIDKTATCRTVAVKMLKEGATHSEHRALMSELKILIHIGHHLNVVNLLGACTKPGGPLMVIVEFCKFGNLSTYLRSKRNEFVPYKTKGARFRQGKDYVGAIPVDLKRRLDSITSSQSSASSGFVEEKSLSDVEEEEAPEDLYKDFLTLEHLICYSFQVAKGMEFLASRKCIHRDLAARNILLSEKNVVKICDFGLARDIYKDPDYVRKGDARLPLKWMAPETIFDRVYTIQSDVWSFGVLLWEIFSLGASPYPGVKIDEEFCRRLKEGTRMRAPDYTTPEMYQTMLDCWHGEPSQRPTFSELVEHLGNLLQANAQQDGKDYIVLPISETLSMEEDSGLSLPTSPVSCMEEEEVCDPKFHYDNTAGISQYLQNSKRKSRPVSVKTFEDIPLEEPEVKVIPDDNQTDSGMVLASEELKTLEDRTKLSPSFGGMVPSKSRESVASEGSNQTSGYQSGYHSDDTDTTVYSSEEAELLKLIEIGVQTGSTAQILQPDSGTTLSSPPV

As for `COCCn1cc(-c2cn3ncc(C(=O)Nc4cc(NC(=O)C5(CN6CCC[C@@H]6C)CC5)cnc4C)c3s2)cn1` [Example 452, (S)-2-(1-(2-methoxyethyl)-1H-pyrazol-4-yl)-N-(2-methyl-5-(1-((2-methylpyrrolidin-1-yl)methyl)cyclopropanecarboxamido)pyridin-3-yl)pyrazolo[5,1-b]thiazole-7-carboxamide], the IC50 at VEGFR2, unphosphorylated was greater than 7500 nM; in experiment [1] it was 376 nM.
Turning to `Cc1ncc(NC(=O)CNCC2CC2)cc1NC(=O)c1cnn2cc(-c3cnn4c3OCCC4)sc12` [Example 453, N-(5-(2-((cyclopropylmethyl)amino)acetamido)-2-methylpyridin-3-yl)-2-(6,7-dihydro-5H-pyrazolo[5,1-b][1,3]oxazin-3-yl)pyrazolo[5,1-b]thiazole-7-carboxamide], the IC50 against VEGFR2, unphosphorylated is greater than 7500 nM; in experiment [1], 5.8 nM.
For the compound `Cc1ncc(NC(=O)CNCC2CC2)cc1NC(=O)c1cnn2cc(-c3cnn4c3CCC4)sc12` [Example 454, N-(5-(2-((cyclopropylmethyl)amino)acetamido)-2-methylpyridin-3-yl)-2-(5,6-dihydro-4H-pyrrolo[1,2-b]pyrazol-3-yl)pyrazolo[5,1-b]thiazole-7-carboxamide], the IC50 was greater than 7500 nM against VEGFR2, unphosphorylated and 4.6 nM in experiment [1].
The corresponding values for `CCCNCC(=O)Nc1cnc(C)c(NC(=O)c2cnn3cc(-c4cnn5c4OCCC5)sc23)c1` [Example 455, 2-(6,7-dihydro-5H-pyrazolo[5,1-b][1,3]oxazin-3-yl)-N-(2-methyl-5-(2-(propylamino)acetamido)pyridin-3-yl)pyrazolo[5,1-b]thiazole-7-carboxamide] are greater than 7500 nM and 3.3 nM.
In the case of `CCCNCC(=O)Nc1cnc(C)c(NC(=O)c2cnn3cc(-c4cnn5c4CCC5)sc23)c1` [Example 456, 2-(5,6-dihydro-4H-pyrrolo[1,2-b]pyrazol-3-yl)-N-(2-methyl-5-(2-(propylamino)acetamido)pyridin-3-yl)pyrazolo[5,1-b]thiazole-7-carboxamide], the IC50 at VEGFR2, unphosphorylated is greater than 7500 nM; in experiment [1], 4.7 nM.
The corresponding values for `Cc1ncc(NC(=O)CN2CCCC2(C)C)cc1NC(=O)c1cnn2cc(-c3cnn(C(C)(C)CO)c3)sc12` [Example 457, N-(5-(2-(2,2-dimethylpyrrolidin-1-yl)acetamido)-2-methylpyridin-3-yl)-2-(1-(1-hydroxy-2-methylpropan-2-yl)-1H-pyrazol-4-yl)pyrazolo[5,1-b]thiazole-7-carboxamide] are greater than 7500 nM and 3.4 nM.
The corresponding values for `Cc1ncc(NC(=O)CN2CCCC2(C)C)cc1NC(=O)c1cnn2cc(-c3cnn4c3COCC4)sc12` [Example 458, 2-(6,7-dihydro-4H-pyrazolo[5,1-c][1,4]oxazin-3-yl)-N-(5-(2-(2,2-dimethylpyrrolidin-1-yl)acetamido)-2-methylpyridin-3-yl)pyrazolo[5,1-b]thiazole-7-carboxamide] are greater than 7500 nM and 1.7 nM.
The corresponding values for `Cc1ncc(C(=O)NCCN2CC3CCC2CC3)cc1NC(=O)c1cnn2cc(-c3cnn4c3COCC4)sc12` [Example 459, N-(5-((2-(2-azabicyclo[2.2.2]octan-2-yl)ethyl)carbamoyl)-2-methylpyridin-3-yl)-2-(6,7-dihydro-4H-pyrazolo[5,1-c][1,4]oxazin-3-yl)pyrazolo[5,1-b]thiazole-7-carboxamide] are greater than 7500 nM and 1.5 nM.
In the case of `Cc1ncc(C(=O)NCCN2CCCC2(C)C)cc1NC(=O)c1cnn2cc(-c3cnn4c3OCCC4)sc12` [Example 460, 2-(6,7-dihydro-5H-pyrazolo[5,1-b][1,3]oxazin-3-yl)-N-(5-((2-(2,2-dimethylpyrrolidin-1-yl)ethyl)carbamoyl)-2-methylpyridin-3-yl)pyrazolo[5,1-b]thiazole-7-carboxamide], the IC50 on VEGFR2, unphosphorylated was greater than 7500 nM; in experiment [1] it was 1.6 nM.
On the same counts, the results for `Cc1ncc(C(=O)NCCN2CCCC23CCC3)cc1NC(=O)c1cnn2cc(-c3cnn4c3CCC4)sc12` [Example 461, N-(5-((2-(5-azaspiro[3.4]octan-5-yl)ethyl)carbamoyl)-2-methylpyridin-3-yl)-2-(5,6-dihydro-4H-pyrrolo[1,2-b]pyrazol-3-yl)pyrazolo[5,1-b]thiazole-7-carboxamide] are 3350 nM and 0.8 nM.
`COCCn1cc(-c2cn3ncc(C(=O)Nc4cc(NC(=O)CCC5CCCN5C)cnc4C)c3s2)cn1` (stereo not drawn) [Example 462, 2-(1-(2-methoxyethyl)-1H-pyrazol-4-yl)-N-(2-methyl-5-(3-(1-methylpyrrolidin-2-yl)propanamido)pyridin-3-yl)pyrazolo[5,1-b]thiazole-7-carboxamide]: the IC50 against VEGFR2, unphosphorylated is greater than 7500 nM; in experiment [1], 15.3 nM.
For `COCCn1cc(-c2cn3ncc(C(=O)Nc4cc(NC(=O)CCC5CCCN5C(C)C)cnc4C)c3s2)cn1` (stereo not drawn) [Example 463, N-(5-(3-(1-isopropylpyrrolidin-2-yl)propanamido)-2-methylpyridin-3-yl)-2-(1-(2-methoxyethyl)-1H-pyrazol-4-yl)pyrazolo[5,1-b]thiazole-7-carboxamide], the IC50 at VEGFR2, unphosphorylated is greater than 7500 nM; in experiment [1], 11 nM.
On to `Cc1ncc(NC(=O)C[C@@H]2CCN(C(C)C)C2)cc1NC(=O)c1cnn2cc(-c3cnn(C)c3)sc12` [Example 464, (S)—N-(5-(2-(1-isopropylpyrrolidin-3-yl)acetamido)-2-methylpyridin-3-yl)-2-(1-methyl-1H-pyrazol-4-yl)pyrazolo[5,1-b]thiazole-7-carboxamide], for which the IC50 against VEGFR2, unphosphorylated was greater than 7500 nM; in experiment [1], 145 nM.
On the same counts, the results for `Cc1ncc(NC(=O)C[C@H]2CCN(C(C)C)C2)cc1NC(=O)c1cnn2cc(-c3cnn(C)c3)sc12` [Example 465, (R)—N-(5-(2-(1-isopropylpyrrolidin-3-yl)acetamido)-2-methylpyridin-3-yl)-2-(1-methyl-1H-pyrazol-4-yl)pyrazolo[5,1-b]thiazole-7-carboxamide] are greater than 7500 nM and 73.9 nM.
The corresponding values for `COCCn1cc(-c2cn3ncc(C(=O)Nc4cc(NC(=O)C[C@@H]5CCN(C(C)C)C5)cnc4C)c3s2)cn1` [Example 466, (S)—N-(5-(2-(1-isopropylpyrrolidin-3-yl)acetamido)-2-methylpyridin-3-yl)-2-(1-(2-methoxyethyl)-1H-pyrazol-4-yl)pyrazolo[5,1-b]thiazole-7-carboxamide] are greater than 7500 nM and 261 nM.
Take `COCCn1cc(-c2cn3ncc(C(=O)Nc4cc(NC(=O)CN5CCC5C(C)C)cnc4C)c3s2)cn1` (stereo not drawn) [Example 467, N-(5-(2-(2-isopropylazetidin-1-yl)acetamido)-2-methylpyridin-3-yl)-2-(1-(2-methoxyethyl)-1H-pyrazol-4-yl)pyrazolo[5,1-b]thiazole-7-carboxamide]: the concentration for half-maximal inhibition (IC50) was greater than 7500 nM against VEGFR2, unphosphorylated and 3 nM in experiment [1].
Regarding `Cc1ncc(NC(=O)CC2CN(C)C2)cc1NC(=O)c1cnn2cc(-c3cnn4c3CCC4)sc12` [Example 468, 2-(5,6-dihydro-4H-pyrrolo[1,2-b]pyrazol-3-yl)-N-(2-methyl-5-(2-(1-methylazetidin-3-yl)acetamido)pyridin-3-yl)pyrazolo[5,1-b]thiazole-7-carboxamide], the IC50 at VEGFR2, unphosphorylated is greater than 7500 nM; in experiment [1], 149 nM.
As for `Cc1ncc(C(=O)NCC2CCCN2C)cc1NC(=O)c1cnn2cc(-c3cnn4c3CCC4)sc12` (stereo not drawn) [Example 469, 2-(5,6-dihydro-4H-pyrrolo[1,2-b]pyrazol-3-yl)-N-(2-methyl-5-(((1-methylpyrrolidin-2-yl)methyl)carbamoyl)pyridin-3-yl)pyrazolo[5,1-b]thiazole-7-carboxamide], the IC50 at VEGFR2, unphosphorylated was greater than 7500 nM; in experiment [1], 5.5 nM.
With `Cc1ncc(C(=O)NCC2CCCN2C)cc1NC(=O)c1cnn2cc(-c3cnn4c3OCCC4)sc12` (stereo not drawn) [Example 470, 2-(6,7-dihydro-5H-pyrazolo[5,1-b][1,3]oxazin-3-yl)-N-(2-methyl-5-(((1-methylpyrrolidin-2-yl)methyl)carbamoyl)pyridin-3-yl)pyrazolo[5,1-b]thiazole-7-carboxamide], the IC50 was greater than 7500 nM on VEGFR2, unphosphorylated and 6.8 nM in experiment [1].
Turning to `Cc1ncc(NC(=O)CNC2CCC2)cc1NC(=O)c1cnn2cc(-c3cnn4c3CCC4)sc12` [Example 471, N-(5-(2-(cyclobutylamino)acetamido)-2-methylpyridin-3-yl)-2-(5,6-dihydro-4H-pyrrolo[1,2-b]pyrazol-3-yl)pyrazolo[5,1-b]thiazole-7-carboxamide], the IC50 against VEGFR2, unphosphorylated was greater than 7500 nM; in experiment [1], 1 nM.
Consider `Cc1ncc(C(=O)NCCN2CCCC23CCC3)cc1NC(=O)c1cnn2cc(-c3cnn4c3COCC4)sc12` [Example 472, N-(5-((2-(5-azaspiro[3.4]octan-5-yl)ethyl)carbamoyl)-2-methylpyridin-3-yl)-2-(6,7-dihydro-4H-pyrazolo[5,1-c][1,4]oxazin-3-yl)pyrazolo[5,1-b]thiazole-7-carboxamide], for which the IC50 at VEGFR2, unphosphorylated is greater than 7500 nM; in experiment [1], 2.8 nM.
The corresponding values for `Cc1ncc(NC(=O)CN2CCC[C@@H]2C)cc1NC(=O)c1cnn2cc(-c3cnn4c3COCC4)sc12` [Example 473, (S)-2-(6,7-dihydro-4H-pyrazolo[5,1-c][1,4]oxazin-3-yl)-N-(2-methyl-5-(2-(2-methylpyrrolidin-1-yl)acetamido)pyridin-3-yl)pyrazolo[5,1-b]thiazole-7-carboxamide] are greater than 7500 nM and 4.8 nM.
The corresponding values for `Cc1ncc(NC(=O)CN2CCC3(CC3)C2)cc1NC(=O)c1cnn2cc(-c3cnn4c3COCC4)sc12` [Example 474, N-(5-(2-(5-azaspiro[2.4]heptan-5-yl)acetamido)-2-methylpyridin-3-yl)-2-(6,7-dihydro-4H-pyrazolo[5,1-c][1,4]oxazin-3-yl)pyrazolo[5,1-b]thiazole-7-carboxamide] are greater than 7500 nM and 1.7 nM.
On to `Cc1ncc(NC(=O)CN2CCC23CCC3)cc1NC(=O)c1cnn2cc(-c3cnn4c3COCC4)sc12` [Example 475, N-(5-(2-(1-azaspiro[3.3]heptan-1-yl)acetamido)-2-methylpyridin-3-yl)-2-(6,7-dihydro-4H-pyrazolo[5,1-c][1,4]oxazin-3-yl)pyrazolo[5,1-b]thiazole-7-carboxamide], for which the IC50 against VEGFR2, unphosphorylated was greater than 7500 nM; in experiment [1], 1.4 nM.
